Data taken from PMC9298201, “4‐Sulfamoylphenylalkylamides as Inhibitors of Carbonic Anhydrases Expressed in Vibrio cholerae” (Chemmedchem, 2021).
Several values for one entry are separate records, joined by “and”; a condition that tells them apart may be missing. Identical values can stand only once. Like-named read-outs stand apart in the source and are kept apart here.

What was measured:
[1] = system: Vibrio cholerae; set-up: method as in PMID 26235676, PMID 27283786, PMID 23488877; details: thus reducing the growth rates of pathogen; cited from earlier work
[2] = target: VchCAα (Vibrio cholerae, UniProt Q9KMP6); assay: stopped-flow CO2 hydrase assay, VchCAα; assay type: biochemical
[3] = target: VchCAβ (Vibrio cholerae, UniProt A0A086SLX8); assay: biochemical
[4] = target: VchCAγ (Vibrio cholerae, UniProt Q9KVT1); assay: stopped-flow CO2 hydrase assay, VchCAγ; assay type: biochemical
[5] = target: T1, hCA I (Homo sapiens, UniProt P00915); assay: stopped-flow CO2 hydrase assay, hCA I; assay type: biochemical
T1 construct: made in house
Description: (§1) The uncatalyzed rates were determined in the same manner and subtracted from the total observed rates.

[6] = target: T2, hCA II (Homo sapiens, UniProt P00918); assay: stopped-flow CO2 hydrase assay, hCA II; assay type: biochemical; details: errors ±10 %, three assays
T2 construct: made in house
Description: as §1

Chain of VchCAγ (Q9KVT1 1-184): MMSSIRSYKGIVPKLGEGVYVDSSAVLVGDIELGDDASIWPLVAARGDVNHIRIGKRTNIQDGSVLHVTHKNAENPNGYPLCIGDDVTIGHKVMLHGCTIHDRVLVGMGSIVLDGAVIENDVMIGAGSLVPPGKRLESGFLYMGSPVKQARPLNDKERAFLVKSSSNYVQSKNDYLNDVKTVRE
Chain of VchCAβ (A0A086SLX8 entry or part of it): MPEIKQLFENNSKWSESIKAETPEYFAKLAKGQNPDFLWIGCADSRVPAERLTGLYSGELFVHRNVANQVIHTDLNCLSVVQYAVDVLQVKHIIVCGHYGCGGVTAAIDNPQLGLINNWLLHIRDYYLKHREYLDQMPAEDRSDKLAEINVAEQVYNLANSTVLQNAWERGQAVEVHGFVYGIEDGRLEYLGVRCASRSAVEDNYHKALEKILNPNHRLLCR
T1 sequence (P00915 whole entry): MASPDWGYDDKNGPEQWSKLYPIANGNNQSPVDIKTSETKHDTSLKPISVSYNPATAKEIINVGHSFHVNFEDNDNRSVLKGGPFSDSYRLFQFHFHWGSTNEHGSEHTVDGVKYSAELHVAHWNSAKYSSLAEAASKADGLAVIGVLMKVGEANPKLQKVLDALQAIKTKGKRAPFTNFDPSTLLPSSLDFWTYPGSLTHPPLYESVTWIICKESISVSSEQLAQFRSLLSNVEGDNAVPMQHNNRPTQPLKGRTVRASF
Chain of VchCAα (Q9KMP6 entry or part of it): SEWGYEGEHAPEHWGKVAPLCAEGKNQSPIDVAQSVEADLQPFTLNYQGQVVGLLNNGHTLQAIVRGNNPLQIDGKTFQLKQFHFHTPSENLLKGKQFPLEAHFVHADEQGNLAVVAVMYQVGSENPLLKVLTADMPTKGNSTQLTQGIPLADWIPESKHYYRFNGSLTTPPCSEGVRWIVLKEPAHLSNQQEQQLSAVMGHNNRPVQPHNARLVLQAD

SMILES | effect on bicarbonate mediated virulence gene induction [1] | Ki [2] [nM] | Ki [3] [nM] | Ki ([4]; stopped-flow CO2 hydrase assay, errors ±10 %, three assays, read-out: Ki VchCA γ) [nM] | Ki [4] [nM] | Ki [5] [nM] | Ki [6] | melting point [°C] | fold more active against VchCAα over hCA I ([2]; selectivity VchCAα vs hCA I) [fold] | fold more selective (VchCAγ) over hCA I ([4]; selectivity VchCAγ vs hCA I) [fold] | fold more selective (VchCAγ) over hCA II ([4]; selectivity VchCAγ vs hCA II) [fold]
CCOc1ccc2nc(S(N)(=O)=O)sc2c1 [EZA, ethoxzolamide] | suppressed bicarbonate mediated virulence gene induction |  |  |  |  |  |  |  |  |  | 
NCC(=O)Nc1ccc(S(N)(=O)=O)cc1 [compound 10, 2‐amino‐N‐(4‐sulfamoylphenyl)acetamide] |  | 8 | 3170 | 744 |  |  |  |  |  |  | 
C[C@H](N)C(=O)Nc1ccc(S(N)(=O)=O)cc1 [compound 11, (S)‐2‐Amino‐N‐(4‐sulfamoylphenyl)propanamide] |  | 35.7 | 381 |  | 23.7 | 869 | 383 nM | 216 to 217 |  |  | 
CC(C)[C@H](N)C(=O)Nc1ccc(S(N)(=O)=O)cc1 [compound 12, (S)‐2‐amino‐3‐methyl‐N‐(4‐sulfamoylphenyl)butanamide] |  | 659 | 362 |  | 88.6 | 609 | 183 nM |  |  |  | 
NS(=O)(=O)c1ccc(NC(=O)CNC(=O)c2ccccc2)cc1 [compound 13, (S)‐N‐(2‐Oxo‐2‐((4‐sulfamoylphenyl)amino)ethyl)benzamide] |  | 0.4 | 884 |  | 563 | 524 | 19.9 nM | 214 to 216 |  |  | 
C[C@H](NC(=O)c1ccccc1)C(=O)Nc1ccc(S(N)(=O)=O)cc1 [compound 14, (S)‐N‐(1‐oxo‐1‐((4‐sulfamoylphenyl)amino)propan‐2‐yl)benzamide] |  | 9.5 | 3000 |  | 80.5 | 46.1 | 4.4 nM | 260 to 261 |  |  | 
CC(C)[C@H](NC(=O)c1ccccc1)C(=O)Nc1ccc(S(N)(=O)=O)cc1 [compound 15, (S)‐N‐(3‐methyl‐1‐oxo‐1‐((4‐sulfamoylphenyl)amino)butan‐2‐yl)benzamide] |  | 9.2 | 389 |  | 24.3 | 51.5 | 3.7 nM | 279 to 280 |  |  | 
NS(=O)(=O)c1ccc(NC(=O)CNC(=O)c2ccccc2Cl)cc1 [compound 20, 2‐Chloro‐N‐(2‐oxo‐2‐((4‐sulfamoylphenyl)amino)ethyl)benzamide] |  | 8.9 | 796 |  | 8930 | 564 | 29.6 nM | 249 to 251 |  |  | 
NS(=O)(=O)c1ccc(NC(=O)CNC(=O)c2cccc(Cl)c2)cc1 [compound 21, 3‐Chloro‐N‐(2‐oxo‐2‐((4‐sulfamoylphenyl)amino)ethyl)benzamide] |  | 18.5 | 82.8 |  | 364 | 127 | 14.7 nM | 262 to 264 |  |  | 
NS(=O)(=O)c1ccc(NC(=O)CNC(=O)c2ccc(Cl)cc2)cc1 [compound 22, 4‐Chloro‐N‐(2‐oxo‐2‐((4‐sulfamoylphenyl)amino)ethyl)benzamide] |  | 9.6 | 59.7 |  | 282 | 81.3 | 3.3 nM | 226 to 228 |  |  | 
NS(=O)(=O)c1ccc(NC(=O)CNC(=O)c2ccco2)cc1 [compound 31, N‐(2‐Oxo‐2‐((4‐sulfamoylphenyl)amino)ethyl)furan‐2‐carboxamide] |  | 6.8 | 460 |  | 7750 | 621 | 22.2 nM | 238 to 240 |  |  | 
NS(=O)(=O)c1ccc(NC(=O)CNC(=O)c2cccs2)cc1 [compound 32, N‐(2‐Oxo‐2‐((4‐sulfamoylphenyl)amino)ethyl)thiophene‐2‐carboxamide] |  | 4.8 | 636 |  | 6020 | 430 | 38.5 nM | 265 to 267 |  |  | 
NS(=O)(=O)c1ccc(CNC(=O)CNC(=O)c2ccccc2)cc1 [compound 36, N‐(2‐Oxo‐2‐((4‐sulfamoylbenzyl)amino)ethyl)benzamide] |  | 8.2 | 82.8 |  | 230 | 754 | 368 nM | 211 to 213 |  |  | 
C[C@H](NC(=O)c1ccccc1)C(=O)NCc1ccc(S(N)(=O)=O)cc1 [compound 37, (S)‐N‐(1‐Oxo‐1‐((4‐sulfamoylbenzyl)amino)propan‐2‐yl)benzamide] |  | 56.5 | 93.3 |  | 261 | 722 | 302 nM | 178 to 180 |  |  | 
CC(C)[C@H](NC(=O)c1ccccc1)C(=O)NCc1ccc(S(N)(=O)=O)cc1 [compound 38, (S)‐N‐(3‐Methyl‐1‐oxo‐1‐((4‐sulfamoylbenzyl)amino)butan‐2‐yl)benzamide] |  | 37.6 | 94.6 |  | 332 | 505 | 170 nM | 213 to 215 |  |  | 
NS(=O)(=O)c1ccc(CNC(=O)CNC(=O)c2ccco2)cc1 [compound 39, N‐(2‐Oxo‐2‐((4‐sulfamoylbenzyl)amino)ethyl)furan‐2‐carboxamide] |  | 35.7 | 394 |  | 734 | 1440 | 316 nM |  |  |  | 
C[C@H](NC(=O)c1ccco1)C(=O)NCc1ccc(S(N)(=O)=O)cc1 [compound 40, (S)‐N‐(1‐Oxo‐1‐((4‐sulfamoylbenzyl)amino)propan‐2‐yl)furan‐2‐carboxamide] |  | 8.5 | 612 |  | 92.8 | 6280 | 6100 nM and 6090 nM |  | ~730 | ~70 | ~70
CC(C)[C@H](NC(=O)c1ccco1)C(=O)NCc1ccc(S(N)(=O)=O)cc1 [compound 41, (S)‐N‐(3‐Methyl‐1‐oxo‐1‐((4‐sulfamoylbenzyl)amino)butan‐2‐yl)furan‐2‐carboxamide] |  | 97.8 | 707 |  | 95.3 | 215 | 19.6 nM | 226 to 228 |  |  | 
NS(=O)(=O)c1ccc(CNC(=O)CNC(=O)c2cccs2)cc1 [compound 42, N‐(2‐Oxo‐2‐((4‐sulfamoylbenzyl)amino)ethyl)thiophene‐2‐carboxamide] |  | 9.3 | 627 |  | 244 | 828 | 87.3 nM | 220 to 222 |  |  | 
C[C@H](NC(=O)c1cccs1)C(=O)NCc1ccc(S(N)(=O)=O)cc1 [compound 43, (S)‐N‐(1‐Oxo‐1‐((4‐sulfamoylbenzyl)amino)propan‐2‐yl)thiophene‐2‐carboxamide] |  | 63.1 | 691 |  | 93.2 | 651 | 71.1 nM | 221 to 223 |  |  | 
CC(C)[C@H](NC(=O)c1cccs1)C(=O)NCc1ccc(S(N)(=O)=O)cc1 [compound 44, (S)‐N‐(3‐Methyl‐1‐oxo‐1‐((4‐sulfamoylbenzyl)amino)butan‐2‐yl)thiophene‐2‐carboxamide] |  | 30.5 | 94.4 |  | 84.8 | 94.9 | 18.4 nM | 144 to 146 |  |  | 
